In US6841519B1, “Isoxazoline derivatives and herbicides containing the same as the active ingredient” (Kumiai Chemical Industry Co., Ltd., priority 1999, dated 2005):

How the values were obtained:
[1] = test system: Echinochloa oryzicola Vasing. (Eo); test: Test for herbicidal effect by paddy field soil treatment (Test Example 1); type: in vivo; details: application amount (active ingredient) 100 g/10 a, examined at the 21st day from the treatment, index per Table 40
Summary of the method: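 Scored on a standard scale at day 21 in the greenhouse: herbicidal effect of wettable powder applied to flooded water (3 cm depth) at 100 g a.i./10 ares, one day after sowing Eo into puddled paddy soil.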

[2] = test system: Echinochloa crus-galli (L.) Beauv. var. crusgall (Ec); test: Test for herbicidal effect by upland field soil treatment (Test Example 2), Ec; type: in vivo; details: application amount (active ingredient) 100 g/10 a, examined at the 21st day from the treatment, index per Table 40
Summary of the method: (§1)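 Pre-emergence soil treatment: wettable powder diluted in water and sprayed on soil just sown with Ec and Se seeds, delivering 100 g active ingredient per 10 ares in 100 liters per 10 ares. Herbicidal effect was rated against a fixed scale 21 days later, after greenhouse growth.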

[3] = test system: Setaria viridis (L.) Beauv. (Se); test: Test for herbicidal effect by upland field soil treatment (Test Example 2), Se; type: in vivo; details: application amount (active ingredient) 100 g/10 a, examined at the 21st day from the treatment, index per Table 40
Summary of the method: as §1

[4] = test system: Echinochloa crus-galli (L.) Beauv. var. crusgalli (Ec); test: Test for herbicidal effect by upland foliage treatment (Test Example 3); type: in vivo; details: 100 g/10 a active ingredient, examined at 14th day
Summary of the method: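 Scored 14 days post-spray against a graded standard: greenhouse-grown Ec, 2 weeks old in upland soil, received whole-foliage application of diluted wettable powder (100 g active ingredient per 10 ares, spray volume 100 L per 10 ares).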

[5] = test system: Monochoria vaginalis Presl (Mo); test: Test for herbicidal effect during breeding period by paddy field water treatment (Test Example 5), Mo; type: in vivo; details: paddy field water treatment at 1-leaf stage, 25 g/10 a active ingredient, 30th day
Experimental: (§2) [table] <Test Example 5> Test For Herbicidal Effect During Breeding Period By Paddy Field Water Treatment A paddy field soil was filled in a plastic pot of 100 cm^2 and subjected to puddling. Seeds of Monochoria vaginalis Presl (Mo) and Scirpus juncoides Roxb. subsp. juncoides Roxb. (Sc) were sowed; water was filled in a depth of 3 cm; and breeding was made. When Mo reached a 1-leaf stage and Sc reached a 2-leaf stage, wettable powders produced in accordance with the Formulation 1 were diluted with water and dropped on the water surface. […] Then, breeding was made in a greenhouse. At the 30th day from the treatment, the herbicidal effect of each wettable powder was examined in accordance with the standard shown in Table 40.

[6] = test system: Scirpus juncoides Roxb. subsp. juncoides Roxb. (Sc); test: Test for herbicidal effect during breeding period by paddy field water treatment (Test Example 5), Sc; type: in vivo; details: paddy field water treatment at 2-leaf stage, 25 g/10 a active ingredient, 30th day
Experimental: as §2

[7] = test system: Polygonum lapathifolium L. subsp. nodosum (Pers.) Kitam. (Po); test: Test for herbicidal effect to broadleaf weeds by upland field soil treatment (Test Example 6), Po; type: in vivo; details: 25 g/10 a active ingredient, 30th day
Experimental: (§3) Test for herbicidal effect to broadleaf weeds by upland field soil treatment
(§4) An upland field soil was filled in a plastic pot of 80 cm^2. Seeds of Polygonum lapathifolium L. subsp. nodosum (Pers.) Kitam. (Po) and Chenopodium album L. (Ch) were sowed, followed by covering with the same soil. Wettable powders produced in accordance with the Formulation 1 were diluted with water and sprayed uniformly on the soil surface using a small sprayer, […] Then, breeding was made in a greenhouse. At the 30th day from the treatment, the herbicidal effect of each wettable powder was examined in accordance with the standard shown in Table 40.

[8] = test system: Chenopodium album L. (Ch); test: Test for herbicidal effect to broadleaf weeds by upland field soil treatment (Test Example 6), Ch; type: in vivo; details: 25 g/10 a active ingredient, 30th day
Experimental: as §3, §4

melting point [°C]	SMILES	Herbicidal effect to Eo [1]	Herbicidal effect to Ec [2]	Herbicidal effect to Se [3]	Herbicidal effect to Ec [4]	Herbicidal effect to Mo [5]	Herbicidal effect to Sc [6]	Herbicidal effect to Po [7]	Herbicidal effect to Ch [8]
82 to 84	CC1(C)CC(S(C)(=O)=O)=NO1 [Compound 2-1, 3-methylsulfonyl-5,5-dimethyl-2-isoxazoline]	–	–	–	–	–	–	–	–
77 to 80	CC1(C)CC(SCc2c(F)cccc2F)=NO1 [Compound 1-38, 3-(2,6-difluorobenzylthio)-5,5-dimethyl-2-isoxazoline]	5 (A herbicidal effect or phytotoxicity of 90% or more)	4 (A herbicidal effect or phytotoxicity of 70% to less than 90%)	4 (A herbicidal effect or phytotoxicity of 70% to less than 90%)	–	–	–	–	–
–	CC1(C)CC(S(=O)(=O)Cc2c(F)cccc2F)=NO1 [Compound 1-39, 3-(2,6-difluorobenzylsulfonyl)-5,5-dimethyl-2-isoxazoline]	5 (A herbicidal effect or phytotoxicity of 90% or more)	5 (A herbicidal effect or phytotoxicity of 90% or more)	5 (A herbicidal effect or phytotoxicity of 90% or more)	5 (A herbicidal effect or phytotoxicity of 90% or more)	5 (A herbicidal effect or phytotoxicity of 90% or more)	5 (A herbicidal effect or phytotoxicity of 90% or more)	4 (A herbicidal effect or phytotoxicity of 70% to less than 90%)	5 (A herbicidal effect or phytotoxicity of 90% or more)
–	CC(C)Oc1ccccc1CS(=O)(=O)C1=NOC(C)(C)C1 [Compound 1-49]	5 (A herbicidal effect or phytotoxicity of 90% or more)	5 (A herbicidal effect or phytotoxicity of 90% or more)	5 (A herbicidal effect or phytotoxicity of 90% or more)	5 (A herbicidal effect or phytotoxicity of 90% or more)	5 (A herbicidal effect or phytotoxicity of 90% or more)	5 (A herbicidal effect or phytotoxicity of 90% or more)	–	–
